No end group written: not given here.
T1: human TAS1R2-I595T/TAS1R3-WT (Homo sapiens, UniProt Q7RTX0+Q8TE23, I595T)
T1 construct: expressed in transfected cells; host or cells: HEK293T-Gα16gust44
T1 sequence (Q8TE23 20-839 I595T): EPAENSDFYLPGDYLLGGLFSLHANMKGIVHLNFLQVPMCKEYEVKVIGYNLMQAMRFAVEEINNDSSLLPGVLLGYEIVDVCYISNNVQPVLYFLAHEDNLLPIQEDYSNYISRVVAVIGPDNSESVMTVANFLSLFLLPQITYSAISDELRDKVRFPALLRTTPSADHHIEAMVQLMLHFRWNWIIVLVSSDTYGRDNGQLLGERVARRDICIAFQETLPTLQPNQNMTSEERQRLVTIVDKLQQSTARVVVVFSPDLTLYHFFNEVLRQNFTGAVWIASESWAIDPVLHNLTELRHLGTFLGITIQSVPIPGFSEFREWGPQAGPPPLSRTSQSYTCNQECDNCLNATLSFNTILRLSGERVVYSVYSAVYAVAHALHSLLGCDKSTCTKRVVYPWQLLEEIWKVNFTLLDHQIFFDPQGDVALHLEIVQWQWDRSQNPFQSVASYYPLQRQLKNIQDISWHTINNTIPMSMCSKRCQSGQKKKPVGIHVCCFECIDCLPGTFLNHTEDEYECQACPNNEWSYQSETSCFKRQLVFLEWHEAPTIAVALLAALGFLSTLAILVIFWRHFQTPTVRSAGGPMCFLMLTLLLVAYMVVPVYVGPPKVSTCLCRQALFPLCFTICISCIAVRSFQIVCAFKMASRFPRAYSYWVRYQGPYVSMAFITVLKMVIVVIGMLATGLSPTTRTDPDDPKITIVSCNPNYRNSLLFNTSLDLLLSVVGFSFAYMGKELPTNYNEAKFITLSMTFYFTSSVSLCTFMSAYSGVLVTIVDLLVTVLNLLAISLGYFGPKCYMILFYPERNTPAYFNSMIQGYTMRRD
T1 sequence (Q7RTX0 21-852): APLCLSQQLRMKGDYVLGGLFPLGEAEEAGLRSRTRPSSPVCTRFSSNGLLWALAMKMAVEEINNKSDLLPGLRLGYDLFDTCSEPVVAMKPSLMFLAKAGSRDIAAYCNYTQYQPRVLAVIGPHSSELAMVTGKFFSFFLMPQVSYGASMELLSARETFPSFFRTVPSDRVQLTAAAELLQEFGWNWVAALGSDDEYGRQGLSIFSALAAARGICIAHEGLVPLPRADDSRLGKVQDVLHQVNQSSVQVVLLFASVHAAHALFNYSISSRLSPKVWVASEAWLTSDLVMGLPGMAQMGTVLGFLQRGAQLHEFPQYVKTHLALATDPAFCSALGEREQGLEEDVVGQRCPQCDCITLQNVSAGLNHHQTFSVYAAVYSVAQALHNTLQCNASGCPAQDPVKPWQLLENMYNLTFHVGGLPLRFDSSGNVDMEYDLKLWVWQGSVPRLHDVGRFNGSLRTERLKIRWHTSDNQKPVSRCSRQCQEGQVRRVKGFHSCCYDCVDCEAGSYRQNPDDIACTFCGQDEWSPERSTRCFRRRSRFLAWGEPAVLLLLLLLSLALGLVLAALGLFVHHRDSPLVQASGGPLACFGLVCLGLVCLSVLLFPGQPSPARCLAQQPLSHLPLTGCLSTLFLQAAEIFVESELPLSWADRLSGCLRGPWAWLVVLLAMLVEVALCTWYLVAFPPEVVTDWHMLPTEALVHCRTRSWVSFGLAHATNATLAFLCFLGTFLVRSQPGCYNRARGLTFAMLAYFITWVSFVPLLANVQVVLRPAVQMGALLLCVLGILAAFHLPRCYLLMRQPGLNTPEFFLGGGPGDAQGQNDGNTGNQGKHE

B1: thaumatin (protein)
chain: ATFEIVNRCSYTVWAAASKGDAALDAGGRQLNSGESWTINVEPGTKGGKIWARTDCYFDDSGSGICKTGDCGGLLRCKRFGRPPTTLAEFSLNQYGKDYIDISNIKGFNVPMDFSPTTRGCRGVRCAADIVGQCPAKLKAPGGGCNDACTVFQTSEYCCTTGKCGPTEYSRFFKRLCPDAFSYVLDKPTTVTCPGSSNYRVTFCPTA
modifications: Eight disulfides
notes: sweet-tasting plant protein, E957

Molecular target: T1, human TAS1R2-I595T/TAS1R3-WT
Assay: Calcium mobilisation assay, TAS1R2 variant I595T with TAS1R3-WT
Assay type: cell-based
Conditions: "-": no activation; for Max ΔF/F0: maximal signal amplitude
Source text: The coding sequences for TAS1R2 and TAS1R3 were commercially synthesised, and the human codon was optimised for expression in human cells. The coding sequences of human TAS1R2 and TAS1R3 were subcloned and inserted into the mammalian expression vectors pcDNA6/myc-HisA and pcDNA4/myc-HisA (Invitrogen; Thermo Fisher Scientific; Illkirch, France) between the EcoRI and NotI restriction sites, generating the plasmids pcDNA6-TAS1R2 and pcDNA4-TAS1R3, respectively. To increase protein expression in mammalian cells, an upstream start codon was used, which was a sequence called MAX, corresponding to the QBI SP163 element also described in pcDNA4-HisMax (Invitrogen; Thermo Fisher Scientific; Illkirch, France). To measure the expression level of the receptor by immunohistochemistry, we used the FLAG sequence ([…]) in the C-terminal position, which encodes the FLAG tag epitope. SNP variants of TAS1R2 and TAS1R3 were constructed based on […], respectively, using site-directed mutagenesis (Genewiz; Leipzig, Germany).
The HEK293T cells were kindly provided by Jay P. Slack (Givaudan Flavors Corporation; Cincinnati, OH, USA). HEK293T cells stably transfected with Gα16gust44 [43, 67] were seeded in poly-D-lysine-coated clear-bottom black 96-well plates (0.35 × 10^5 cells/well) in high-glucose DMEM supplemented with 2 mM GlutaMAX, 10% dialysed foetal bovine serum with penicillin/streptomycin and G418 (400 μg/mL) at 37 °C and 6.3% CO2 in a humidified atmosphere as previously reported. […] As a negative control, HEK293T cells were mock-transfected with the empty expression vector. After a further 24 h of incubation, the HEK293T cells were washed with C1 buffer (130 mM NaCl, 5 mM KCl, 10 mM HEPES pH 7.4 and 2 mM CaCl2). The 96-well plates containing the cells were then stimulated with sweet-tasting compounds. […] Different concentration ranges were tested depending on the sweet compound injected. The Ca^2+ changes were expressed as fractional changes in fluorescent light intensity: ΔF/F = (F − F0)/F0, where F was the fluorescent light intensity at each point, and F0 was the value of emitted fluorescent light prior to stimulus application. To calculate dose–response relationships, the changes in fluorescence upon stimulus application were averaged, mock-subtracted and baseline-corrected. The dose–response data obtained were adjusted using a 4-parameter logistic equation. The half-maximal effective concentrations (EC50 values) and maximal signal amplitudes were calculated using SigmaPlot software (version 15.0) (Systat Software; San Jose, CA, USA).
For in vitro calcium mobilisation assay performed on hTAS1R2-SNPs, hTAS1R3-SNPs and mTAS1R3-I60T, 6 to 7 concentrations were tested for each sweet compound, plus buffer alone. All concentration–receptor combinations were measured in duplicate, and each experiment was repeated at least 4 times (8 wells/concentration). Results were expressed for each concentration as ΔF/F mean ± SEM and represented as dose–response curves.

| Molecule | EC50 | R1 = Variant EC50/WT EC50 | Max ΔF/F0 |
| --- | --- | --- | --- |
| CC1=CC(=O)NS(=O)(=O)O1 [Acesulfame K, acesulfame K] | 300 ± 139 µM | 0.4 | 0.02 ± 0.01 |
| O=S(=O)(O)NC1CCCCC1 [Cyclamate, cyclamate] | 2030 ± 102 µM |  |  |
| C[C@H](CC[C@@H](O[C@@H]1O[C@H](CO[C@@H]2O[C@H](CO)[C@@H](O)[C@H](O)[C@H]2O)[C@@H](O)[C@H](O)[C@H]1O[C@@H]1O[C@H](CO)[C@@H](O)[C@H](O)[C@H]1O)C(C)(C)O)[C@H]1CC[C@@]2(C)[C@@H]3CC=C4[C@@H](CC[C@H](O[C@@H]5O[C@H](CO[C@@H]6O[C@H](CO)[C@@H](O)[C@H](O)[C@H]6O)[C@@H](O)[C@H](O)[C@H]5O)C4(C)C)[C@]3(C)[C@H](O)C[C@]12C [Mogroside V, mogroside V] | 31.4 ± 6 µM | 1.8 | 0.27 ± 0.03 |
| COc1ccc(CCC(=O)c2c(O)cc(O[C@@H]3O[C@H](CO)[C@@H](O)[C@H](O)[C@H]3O[C@@H]3O[C@@H](C)[C@H](O)[C@@H](O)[C@H]3O)cc2O)cc1O [NHDC, neohesperidin dihydrochalcone] | 70.3 ± 1.3 µM | 0.9 | 0.09 ± 0.01 |
| COC(=O)[C@H](Cc1ccccc1)NC(=O)[C@H](CC(=O)O)NCCC(C)(C)C [Neotame] | 1.27 ± 0.18 µM | 1.5 | 0.09 ± 0.01 |
| C=C(C)[C@@H]1CC=C(/C=N/O)CC1 [Perillartine, perillartine] | 53.2 ± 1.6 µM | 3.0 | 0.51 ± 0.01 |
| C=C1C[C@@]23CC[C@H]4[C@@](C)(CCC[C@@]4(C)C(=O)O[C@@H]4O[C@H](CO)[C@@H](O)[C@H](O[C@@H]5O[C@H](CO)[C@@H](O)[C@H](O)[C@H]5O)[C@H]4O[C@@H]4O[C@H](CO)[C@@H](O)[C@H](O)[C@H]4O)[C@@H]2CC[C@]1(O[C@@H]1O[C@H](CO)[C@@H](O)[C@H](O[C@@H]2O[C@H](CO)[C@@H](O)[C@H](O)[C@H]2O)[C@H]1O[C@@H]1O[C@H](CO)[C@@H](O)[C@H](O)[C@H]1O)C3 [Rebaudioside M, rebaudioside M] | 35.8 ± 4 µM | 2.1 | 0.23 ± 0.01 |
| OC[C@H]1O[C@H](O[C@]2(CCl)O[C@H](CCl)[C@@H](O)[C@@H]2O)[C@H](O)[C@@H](O)[C@H]1Cl [Sucralose] | 108 ± 5 µM | 1.2 | 0.08 ± 0.02 |
| brazzein (QDKCKKVYENYPVSKCQLANQCNYDCKLDKHARSGECFYDEKRNLQCICDYCEY; ends and bridges not checked; cysteine pairing not given here; UniProt P56552 1-54, looked up) [sweet-tasting protein obtained by recombinant production using the yeast Pichia pastoris] |  | 10.8 | 0.13 ± 0.02 |
| thaumatin |  | 3.7 | 0.39 ± 0.01 |
| B1 | 27.8 ± 1.4 µM |  |  |
